Laboratory results from PubChem BioAssay AID651896 (Broad Institute, 2012).

Tested on: L-6 rat myocyte cytotoxicity, plate reader
Experiment: L6 myocyte viability loss – cell-based, plate reader, cherry-pick, cytotoxicity control, dose response (AID 651896)

**Q.** `C[C@@H]1CN([C@@H](C)CO)C(=O)c2cccc(NC(=O)c3ccncc3)c2O[C@H]1CN(C)Cc1ccc(Oc2ccccc2)cc1` was tested. Which IC50 did it give?
**A.** The IC50 was 10.8 µM.
